Experimental data as given in US12448369B2 (Edgewise Therapeutics, Inc., priority 2023, dated 2025).

Experiments:
[1] = test system: Rabbit Psoas myofibrils (skeletal myosin ATPase); experiment: Myofibril ATPase assay, rabbit psoas (skeletal) myofibrils; type: biochemical
In short: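 Readout: A340 decline from NADH oxidation, PK/LDH-coupled to ADP release; kinetic reads over 75 min. Buffer: pCa (PIPES, CaCl2, EGTA), pH 7.0. Linear-regression slopes vs vehicle, 4PL fit; reported as concentration giving 75% (Y75) or 125% (Y125) of vehicle activity.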

[2] = test system: Porcine atria myofibrils (atrial myosin ATPase); experiment: Myofibril ATPase assay, porcine atria myofibrils; type: biochemical
In short: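 Coupled PK-LDH readout, NADH loss at 340 nm, kinetic 75 min. Porcine atria myofibrils, pCa buffer (PIPES/CaCl2/EGTA, pH 7.0). Slopes (mAU/min) normalized to vehicle = 100%, 4-parameter fit; Y75 or Y125 reported.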

[3] = target: T1, Porcine ventricle myofibrils (ventricular myosin ATPase) (Sus scrofa, UniProt P79293); experiment: Myofibril ATPase assay, porcine ventricle myofibrils; type: biochemical, porcine (Yucatan minipigs)
T1 construct: Myofibrils from porcine cardiac muscle was isolated from the left ventricle of Yucatan minipigs; tissue Exemplar Genetics; host or cells: left ventricle of Yucatan minipigs, myofibrils prepared in house
T1 sequence (P79293 whole entry): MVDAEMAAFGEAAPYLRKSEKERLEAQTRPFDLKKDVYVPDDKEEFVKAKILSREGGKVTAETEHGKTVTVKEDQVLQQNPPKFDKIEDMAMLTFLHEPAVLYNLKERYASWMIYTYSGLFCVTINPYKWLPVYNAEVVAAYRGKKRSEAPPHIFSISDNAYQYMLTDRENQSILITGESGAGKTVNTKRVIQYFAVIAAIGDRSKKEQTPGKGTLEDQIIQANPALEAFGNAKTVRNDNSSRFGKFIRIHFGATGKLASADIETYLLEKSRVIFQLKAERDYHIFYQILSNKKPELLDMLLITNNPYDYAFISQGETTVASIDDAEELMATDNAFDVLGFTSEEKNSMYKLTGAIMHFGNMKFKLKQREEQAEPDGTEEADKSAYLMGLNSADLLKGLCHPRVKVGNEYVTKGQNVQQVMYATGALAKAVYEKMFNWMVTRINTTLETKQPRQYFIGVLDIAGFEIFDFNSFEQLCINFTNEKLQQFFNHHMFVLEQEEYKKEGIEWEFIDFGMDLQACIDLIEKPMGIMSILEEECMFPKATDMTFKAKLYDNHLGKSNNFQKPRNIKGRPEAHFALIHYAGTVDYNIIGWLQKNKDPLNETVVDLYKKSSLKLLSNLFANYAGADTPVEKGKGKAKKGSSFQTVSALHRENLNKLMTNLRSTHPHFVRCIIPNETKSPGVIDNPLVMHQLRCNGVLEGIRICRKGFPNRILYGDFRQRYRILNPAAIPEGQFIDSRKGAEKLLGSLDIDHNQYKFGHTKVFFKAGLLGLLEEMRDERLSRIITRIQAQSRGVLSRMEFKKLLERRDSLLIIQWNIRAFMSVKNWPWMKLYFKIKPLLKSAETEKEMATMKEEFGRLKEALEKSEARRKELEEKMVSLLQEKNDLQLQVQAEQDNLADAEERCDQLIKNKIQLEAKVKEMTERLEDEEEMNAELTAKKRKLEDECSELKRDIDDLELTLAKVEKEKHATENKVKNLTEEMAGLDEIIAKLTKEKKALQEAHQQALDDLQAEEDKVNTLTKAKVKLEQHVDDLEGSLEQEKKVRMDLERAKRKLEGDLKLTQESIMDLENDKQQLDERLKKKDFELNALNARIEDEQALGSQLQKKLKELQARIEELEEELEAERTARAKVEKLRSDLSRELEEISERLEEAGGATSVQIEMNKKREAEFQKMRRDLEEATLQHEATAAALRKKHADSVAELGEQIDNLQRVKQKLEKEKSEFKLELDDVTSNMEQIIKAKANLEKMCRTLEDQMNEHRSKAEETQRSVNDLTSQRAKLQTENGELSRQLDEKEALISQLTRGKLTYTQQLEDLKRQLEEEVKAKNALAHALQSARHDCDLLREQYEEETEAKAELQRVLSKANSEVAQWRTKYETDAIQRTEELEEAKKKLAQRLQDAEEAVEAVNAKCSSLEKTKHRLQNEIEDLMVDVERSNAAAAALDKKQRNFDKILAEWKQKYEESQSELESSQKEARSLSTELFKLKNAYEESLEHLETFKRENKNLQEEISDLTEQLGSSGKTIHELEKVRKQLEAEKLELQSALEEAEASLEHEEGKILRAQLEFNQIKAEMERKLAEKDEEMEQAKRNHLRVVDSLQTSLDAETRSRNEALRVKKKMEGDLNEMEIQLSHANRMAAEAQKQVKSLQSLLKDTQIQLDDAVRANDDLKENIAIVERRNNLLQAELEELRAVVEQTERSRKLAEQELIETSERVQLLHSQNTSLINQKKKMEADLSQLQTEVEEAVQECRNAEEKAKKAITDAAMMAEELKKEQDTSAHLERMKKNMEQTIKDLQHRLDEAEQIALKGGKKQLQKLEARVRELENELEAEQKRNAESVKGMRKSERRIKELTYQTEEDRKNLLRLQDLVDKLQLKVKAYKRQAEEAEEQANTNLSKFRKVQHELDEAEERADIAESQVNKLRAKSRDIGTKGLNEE
In short: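 Left-ventricle myofibrils from Yucatan minipigs were tested with a PK/LDH-coupled system, following NADH loss at 340 nm every 1.5-2 min for 75 min. Slopes were normalized to vehicle wells and fit to a 4-parameter logistic model; values are Y75 (25% ATPase reduction) or Y125 concentrations.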

[4] = Y75 value (no ‡ mark), rabbit psoas myofibrils
[5] = Y75 value (no ‡ mark), porcine atria myofibrils
[6] = Y75 value (no ‡ mark), porcine ventricle myofibrils
[7] = rabbit psoas myofibrils, Y75 value
[8] = porcine atria myofibrils, Y75 value (75% activity relative to no compound)
[9] = porcine ventricle myofibrils, Y75 value

SMILES | Skeletal EC25 [1, 4] [µM] | Atrial EC25 [2, 5] [nM] | Ventricular EC25 [3, 6] [µM] | also measured
Cc1c(C(F)(F)C(=O)N[C@H](C)c2cccc(C#N)n2)c(=O)[nH]c2ccc(F)cc12 (single isomer, unassigned) [compound 2565] | 100.00 | 14390 | 100.00 | –
C[C@@H](NC(=O)Cc1cc2c(F)cc(F)cc2[nH]c1=O)c1ncc(C#N)cc1F [compound 1137] | 5.34 | 5320 | 2.51 | –
CCN(CC)c1nccc2[nH]c(=O)c(CC(=O)N[C@@H](C)c3ccc(F)cc3F)c(C)c12 [compound 343] | – | – | – | Skeletal EC25 [1, 7]: 1.55 µM; Atrial EC25 [2, 8]: 2390 nM; Ventricular EC25 [3, 9]: 9.62 µM
Cc1nccc2[nH]c(=O)c(CC(=O)N[C@H](C)c3ccc(C#N)cn3)c(C)c12 (single isomer, unassigned) [compound 253] | – | – | – | Skeletal EC25 [1, 7]: 100.00 µM; Atrial EC25 [2, 8]: 100000 nM; Ventricular EC25 [3, 9]: 100.00 µM
C[C@H](NC(=O)Cc1c(C(F)F)c2cc(F)ccc2[nH]c1=O)c1ccc(F)cc1F [compound 106] | 0.04 | 50 | 0.20 | –
Cc1c(C(F)(F)C(=O)N[C@H]2CCc3cc(C#N)cnc32)c(=O)[nH]c2ccc(F)cc12 (single isomer, unassigned) [compound 2516] | 0.67 | 790 | 100.00 | –
Cc1c(CC(=O)N[C@@H](C)c2ccc(F)cc2F)c(=O)[nH]c2ccc(F)c(C(F)(F)F)c12 [compound 96] | 0.01 | 70 | 0.13 | –
Cc1c(CC(=O)N[C@@H](C)c2ccc(F)cc2F)c(=O)[nH]c2ccnc(C(F)(F)F)c12 [compound 377] | – | – | – | Skeletal EC25 [1, 7]: 0.01 µM; Atrial EC25 [2, 8]: 60 nM; Ventricular EC25 [3, 9]: 0.29 µM
C[C@H](NC(=O)Cc1c(C(F)(F)F)c2ccccc2[nH]c1=O)c1ccc(F)cc1F [compound 129] | 0.04 | 210 | 0.75 | –
C[C@H](NC(=O)Cc1cc2cc(F)c(F)cc2[nH]c1=O)c1cnc(C#N)cn1 [compound 1099] | 4.41 | 7610 | 49.75 | –
Cc1nccc2[nH]c(=O)c(CC(=O)N[C@H](CO)Cc3ccccc3)c(C)c12 [compound 495] | – | – | – | Skeletal EC25 [1, 7]: 100.00 µM; Atrial EC25 [2, 8]: 100000 nM; Ventricular EC25 [3, 9]: 100.00 µM
C[C@H](NC(=O)Cc1cc2c(C3CC3)nccc2[nH]c1=O)c1ccc(F)cc1F [compound 432] | – | – | – | Skeletal EC25 [1, 7]: 0.47 µM; Atrial EC25 [2, 8]: 16070 nM; Ventricular EC25 [3, 9]: 80.53 µM
C[C@H](NC(=O)Cc1c(C2CC2)c2cc(F)ccc2[nH]c1=O)c1ccc(F)cc1F [compound 114] | 0.06 | 3860 | 4.54 | –
C[C@@H](NC(=O)C1(c2cc3c(F)c(F)ccc3[nH]c2=O)CC1)c1ncc(C#N)cc1F (single isomer, unassigned) [compound 2592] | 3.54 | 130 | 0.47 | –
Cc1nc(C#N)cnc1[C@@H](C)NC(=O)Cc1cc2cc(F)c(F)cc2[nH]c1=O (single isomer, unassigned) [compound 5] | 3.60 | 1450 | 4.13 | –
Cc1nccc2[nH]c(=O)c(CC(=O)N[C@@H](C)c3ccc(C#N)cn3)c(C)c12 (single isomer, unassigned) [compound 254] | – | – | – | Skeletal EC25 [1, 7]: 1.78 µM; Atrial EC25 [2, 8]: 18170 nM; Ventricular EC25 [3, 9]: 23.41 µM
Cc1c(CC(=O)N[C@H](CO)c2ccc(F)cc2F)c(=O)[nH]c2ccnc(OC3CC3)c12 [compound 199] | – | – | – | Skeletal EC25 [1, 7]: 13.03 µM; Atrial EC25 [2, 8]: 100000 nM; Ventricular EC25 [3, 9]: 67.50 µM
Cc1c(CC(=O)N[C@H](C)c2ccc(C#N)nn2)c(=O)[nH]c2cc(F)c(F)cc12 [compound 1042] | 1.88 | 890 | 24 | –
Cc1c(C(F)(F)C(=O)NC(C)c2cccc(C#N)n2)c(=O)[nH]c2ccc(F)c(F)c12 (single isomer, unassigned) [Compound 2588] | – | 100000 | – | Skeletal EC25 ([1]; ‡ Y125 value, not a Y75 value (125% activity relative to no compound), rabbit psoas myofibrils): 19.03‡ μM; Ventricular EC25 ([3]; ‡ Y125 value, not a Y75 value (125% activity relative to no compound), porcine ventricle myofibrils): 67.27‡ μM
Cc1c(CC(=O)N[C@H]2CCc3cc(C#N)cnc32)c(=O)[nH]c2ccc(F)cc12 [compound 1093] | 100.00 | 100000 | 100.00 | –
Cc1nccc2[nH]c(=O)c(CC(=O)N[C@H](C)c3ccc(C#N)cc3F)c(Cl)c12 [compound 151] | – | – | – | Skeletal EC25 [1, 7]: 0.11 µM; Atrial EC25 [2, 8]: 440 nM; Ventricular EC25 [3, 9]: 0.87 µM
CC(NC(=O)Cc1cc2cc(F)ccc2[nH]c1=O)c1cc(C#N)c(F)s1 (stereo not drawn) [compound 4002] | – | – | – | Skeletal EC25 ([1]; Y75 value: concentration required to reduce myosin ATP-ase activity by 25%, Rabbit Psoas Prep pCa 25 GEOM_MEAN): 4.10 µM; Atrial EC25 ([2]; Y75 value: concentration required to reduce myosin ATP-ase activity by 25%, Porcine Atria Prep pCa 25 GEOM_MEAN): 1600 nM; Ventricular EC25 ([3]; Y75 value: concentration required to reduce myosin ATP-ase activity by 25%, Porcine Ventricle Prep pCa 25 GEOM_MEAN): 100.00 µM
N#Cc1cnc2c(c1)CC[C@H]2NC(=O)C1(c2cc3c(F)c(F)ccc3[nH]c2=O)CC1 (single isomer, unassigned) [compound 4823] | 42.66 | 8470 | 100.00 | –
Cc1c([C@H](C)C(=O)N[C@@H](C)c2ccc(F)cc2F)c(=O)[nH]c2ccc(F)c(F)c12 (single isomer, unassigned) [compound 112] | 0.03 | 60 | 0.31 | –

The next lines start with results.

Skeletal EC25 [1, 4] [µM] | Atrial EC25 [2, 5] [nM] | Ventricular EC25 [3, 6] [µM] | SMILES | also measured
0.49 | 40 | 2.76 | Cc1c(CC(=O)N[C@H](C)c2ncc(C#N)cn2)c(=O)[nH]c2cccc(C#N)c12 (single isomer, unassigned) [compound 2069] | –
0.78 | 650 | 7.05 | Cc1nc(C#N)ncc1[C@@H](C)NC(=O)Cc1c(C)c2cc(F)ccc2[nH]c1=O [compound 1052] | –
1.25 | 900 | 10.98 | C[C@H](NC(=O)Cc1c(C#N)c2cc(F)c(F)cc2[nH]c1=O)c1ccc(C#N)cn1 (single isomer, unassigned) [compound 2048] | –
0.02 | 50 | 0.23 | Cc1c(CC(=O)N[C@@H](C)c2ccc(C#N)cn2)c(=O)[nH]c2ccc(F)c(C#N)c12 [compound 50] | –
0.03 | 140 | 0.21 | Cc1c(CC(=O)N[C@H](C)c2ncc(C#N)cc2F)c(=O)[nH]c2cc(F)c(F)cc12 [compound 1104] | –
100.00 | 100000 | 100.00 | C[C@H](NC(=O)Cc1cc2c(C#N)cccc2[nH]c1=O)c1ncc(C#N)cn1 (single isomer, unassigned) [compound 2038] | –
0.02 | 100 | 0.05 | Cc1nc(C#N)ncc1[C@H](C)NC(=O)Cc1c(C)c2c(F)c(F)ccc2[nH]c1=O [compound 1132] | –
29.36 | 9190 | 5.84 | Cc1c(CC(=O)N[C@@H](C)c2ncc(C3COC3)cn2)c(=O)[nH]c2ccc(F)c(F)c12 (single isomer, unassigned) [compound 2044] | –
